In US20030108872A1, “Genomics-assisted rapid identification of targets” (priority 2000, published 2003):

Key:
[1] = test system: cells in which folA is regulated by PBAD, PLtetO-1, or Plac/ara-1; experiment: MIC by microbroth dilution in E. coli under-expressing folA; format: cell-based; conditions: for MIC with decreasing regulator level: PLtetO-1 or Plac/ara-1, regulators L-arabinose, anhydrotetracycline, IPTG, FIG. 3
Description: In another example, the wild-type native folA gene was knocked out, and a wild-type copy of the gene folA, which encodes the protein dihydrofolate reductase, was placed under ectopic expression in the yibD locus under regulation by PBAD with the regulator, L-arabinose. Dihydropteroate synthetase, the gene product of […], catalyzes the enzymatic reaction two steps before dihydrofolate reductase in the folate biosynthetic pathway.
Methods. […] IPTG was added to a final concentration of 0.1 mM and anhydrous-tetracycline was added to a final concentration of 100 ng/ml to the culture media for routine growth of GTC-EC#313 and GTC-EC#346, respectively.
The specificity and sensitivity of the resultant colonies to added drugs were followed by measuring the minimal inhibitory concentration (MIC) of trimethoprim, sulfamethozasone, phosphomycin and D-cycloserine at varying regulator levels. This was performed according to NCCLS (National Center for Clinical Laboratory Standards) recommendations(NCCLS, 1997, METHODS FOR DILUTION ANTIMICROBIAL SUSCEPTIBILITY TESTS FOR BACTERIA THAT GROW AEROBICALLY, 4th ed.; approved standard. NCCLS document M7-A4. NCCLS, Wayne, Pa.), in 100 μl volume in 96-well format, with serial two-fold dilutions of drug concentration.

[2] = test system: E. coli strain WO-153; experiment: Genome-wide E. coli ORFmer overexpression rescue (OER) assay; format: cell-based; conditions: for PCR verification of OER clones: expected target gene: liquid microtiter assay, expected targets folA, murA, fabI; for PCR verification of OER clones: expected clone: two plate assay format (disk diffusion, gradient plate)
Description: Over expression Rescue Assays. Over expression assays were conducted with the E. coli strain WO-153 described in Table 7. Construction of WO-0153. […] The asmB1 mutation is a G to A transition at position 628 in the 1pxC gene. […] The tolC gene encodes an outer membrane protein that acts as a channel for the acrAB efflux pumps (See for example, Fralick, J. 1996. J. Bacteriol. 178:5801-5805). […] WO-0153 was constructed as follows. The asmB1 mutation was introduced into a DNA fragment containing the 1pxC gene and 1 kb of the 5′ end of the secA gene by site directed mutagenesis of the 1pxC gene using standard methods. A kan^R resistance cassette flanked by FRT sites was introduced 60 bp downstream of the 1pxC gene. The linear DNA construct was introduced into electrocompetent and recombinogenic E. coli KM354 (pTP223) as described by Murphy (See for example, Murphy, 1998, J. Bacteriol. 180: 2063-71). Transformants were selected on LB agar containing kanamycin (35 mcg/ml) and screened for sensitivity to novobiocin (20 mcg/ml). The presence of the asmB1 mutation in clones with the expected phenotype was verified by DNA sequence analysis. The kanR gene flanked by FRT sites was then excised from the 1pxC-secA intergenic region using a previously described method (See for example, Cherepanove, P. P, and Wackernagel, W. 1995. Gene 158: 9-14.). […] 178:5138-5143; Fralick, J. (1996). J. Bacteriol. 178:5801-5805; Fralick, J. A., et al. (1994) J. Bacteriol. 176:6404-6406; and Cherepanove, P. P, et al., (1995) Gene 158:9-14. […] Plasmid library DNA was transformed into WO-153 by electroporation as described above. Cells were collected from transformation plates by scraping and were equalized to an optical density of 1.53 on a Beckman DU650 spectrophotometer([…]). Groups of five libraries were mixed and frozen in LB media plus 10% (vol/vol) glycerol by immersion in a dry-ice/ethanol bath for 5 minutes.
Over-expression assays were performed in liquid media in a microtiter format, in a gradient plate format, or in a disk-diffusion format. The protocol used for the microtiter format was similar to the protocol described above for the MIC assay. Aliquots of 5 library pools spanning the genome were thawed at room temperature and 200 ul of each was inoculated into its own 20 ml of Mueller Hinton media containing ampicillin at 200 ug/ml and anhydrous tetracycline inducer as appropriate. Typically, replicates were performed using a number of final inducer concentrations, ranging from 0 to 100 ng/ml. Following an adequate mixing, 50 ul of inoculated media was mixed with 50 ul of the test antibiotic in Nunc brand 96-well microtiterplates. Typically, each group of five libraries was mixed with a range of concentrations of antibiotic spanning the minimum inhibitory concentration (MIC) of the antibiotic. […] Columns may contain 10 different groups of libraries as well as null vector and no innoculum controls. After mixing inoculum plus media with antibiotic, well contents were mixed by pipetting and incubated at 37° C. for 16 to 20 hours. Optical density at 600 nm was measured using a Molecular Devices SpectraMAX 250 spectrophotometer. […] Contents of wells showing rescue were transferred to LB agar plates containing ampicillin at 100 ug/ml, and were spread to obtain single colonies. Alternately, it is possible to maintain selection for the antibiotic being assayed by including it in the agar plates at this point.
OER Assay using Disk diffusion and Gradient Plate Assay formats. In the Disk diffusion plate format, the 3 inocula (see below) were plated on MHB plates containing ampicillin (100 mcg/ml) and anhydrous tetracycline (a-tet, 100 ng/ml). Two paper disks (6 mm diameter) containing 10×and 20×MIC of the test antiobiotic were placed on the surface of the plate.

| SMILES | MIC with decreasing regulator level [1] | PCR verification of OER clones: expected target gene [2] | PCR verification of OER clones: expected clone [2] | MIC with decreasing regulator (L-arabinose) level ([1]; FIG. 5) |
| --- | --- | --- | --- | --- |
| C[C@@H]1O[C@@H]1P(=O)(O)O [phosphomycin] | relatively unchanged | expected target gene was identifed | expected clone was isolated | – |
| COc1cc(Cc2cnc(N)nc2N)cc(OC)c1OC [trimethoprim] | decreases | expected target gene was identifed | expected clone was isolated | decreases |
